This is an account of results in the NIST ThermoML archive (doi:10.1016/j.fluid.2005.02.014).

Numbers after ± are expanded uncertainties.

The conditions of this data set: Liquid; for mass density: 298.15 K, 101.33 kPa.

The term mass density denotes mass per unit of volume. In the case of `C1CCOCC1` [tetrahydropyran], the Normal boiling temperature is 88.08 ± 0.26 °C. The mass density (Vibrating tube method) stood at 878.8 ± 0.5 kg/m3.

As for `CC(C)(C)Cl` [2-chloro-2-methylpropane], the mass density came out at 836.45 ± 0.65 kg/m3 and the Normal boiling temperature turned out to be 50.73 ± 0.26 °C.

Take `CCC(C)Cl` (stereo not given) [2-chlorobutane]: the mass density was found to be 867.26 ± 0.62 kg/m3 and the Normal boiling temperature is 68.11 ± 0.26 °C.

In the case of `CC(C)CCl` [1-chloro-2-methylpropane], the mass density amounted to 870.94 ± 0.99 kg/m3 and the Normal boiling temperature is 68.90 ± 0.26 °C.

On to `CCCCCl` [1-chlorobutane], for which the mass density worked out at 880.67 ± 0.6 kg/m3 and the Normal boiling temperature amounted to 78.37 ± 0.26 °C.
